{"source": "patent US10457709B2", "about": "“Antimicrobial peptides, their variants and uses” (priority 2015, dated 2019)", "key": {"[1]": {"system": "Acinetobacter baumannii clinical strains", "format": "cell-based", "set-up": "Minimum inhibitory concentration: unit: μg/ml", "conditions": "microdilution, Muller Hinton broth-cation adjusted, 0.02% BSA, 0.2% acetic acid", "how_it_was_run": "(§1)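 Clinical isolates tested by broth microdilution at 5.0×10^5 cfu/ml with peptides at 0.125–128 μg/ml, incubated 20–24 h at 37° C. Bacteria were grown in Mueller Hinton broth and yeasts in potato dextrose broth. MIC is the lowest concentration showing no visible growth.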"}, "[2]": {"system": "Enterobacter cloacae clinical strains", "format": "cell-based", "set-up": "Minimum inhibitory concentration: unit: μg/ml", "conditions": "microdilution, Muller Hinton broth-cation adjusted, 0.02% BSA, 0.2% acetic acid", "how_it_was_run": "as §1"}, "[3]": {"system": "Proteus mirabilis clinical strains", "format": "cell-based", "set-up": "Minimum inhibitory concentration: unit: μg/ml", "conditions": "microdilution, Muller Hinton broth-cation adjusted, 0.02% BSA, 0.2% acetic acid", "how_it_was_run": "as §1"}, "[4]": {"system": "Serratia marcescens clinical strains", "format": "cell-based", "set-up": "Minimum inhibitory concentration: unit: μg/ml", "conditions": "microdilution, Muller Hinton broth-cation adjusted, 0.02% BSA, 0.2% acetic acid", "how_it_was_run": "as §1"}, "[5]": {"system": "Staphylococcus aureus clinical strains", "format": "cell-based", "set-up": "Minimum inhibitory concentration: unit: μg/ml", "conditions": "microdilution, Muller Hinton broth-cation adjusted, 0.02% BSA, 0.2% acetic acid", "how_it_was_run": "as §1"}, "[6]": {"system": "Streptococcus pneumoniae clinical strains", "format": "cell-based", "set-up": "Minimum inhibitory concentration: unit: μg/ml", "conditions": "microdilution, Muller Hinton broth-cation adjusted, 0.02% BSA, 0.2% acetic acid", "how_it_was_run": "as §1"}, "[7]": {"system": "Candida albicans clinical strains", "test": "MIC, clinical yeast strains", "format": "cell-based", "set-up": "unit: μg/ml", "how_it_was_run": "as §1"}, "[8]": {"system": "C. glabrata clinical strains", "test": "MIC, clinical yeast strains", "format": "cell-based, Candida glabrata", "set-up": "unit: µg/ml", "how_it_was_run": "as §1"}, "[9]": {"system": "C. parapsilosis clinical strains", "test": "MIC, clinical yeast strains", "format": "cell-based, Candida parapsilosis", "set-up": "unit: µg/ml", "how_it_was_run": "as §1"}, "[10]": {"system": "C. quillermondiae clinical strains", "test": "MIC, clinical yeast strains", "format": "cell-based, Candida quillermondiae", "set-up": "unit: μg/ml", "conditions": "C. quillermondiae clinical yeast strain 1", "how_it_was_run": "as §1"}, "[11]": {"system": "Escherichia coli clinical strains", "format": "cell-based", "conditions": "microdilution, Muller Hinton broth-cation adjusted, 0.02% BSA, 0.2% acetic acid", "how_it_was_run": "as §1"}, "[12]": {"system": "Klebsiella pneumoniae clinical strains", "format": "cell-based", "conditions": "microdilution, Muller Hinton broth-cation adjusted, 0.02% BSA, 0.2% acetic acid", "how_it_was_run": "as §1"}, "[13]": {"system": "Pseudomonas aeruginosa clinical strains", "format": "cell-based", "conditions": "microdilution, Muller Hinton broth-cation adjusted, 0.02% BSA, 0.2% acetic acid", "how_it_was_run": "as §1"}}, "note": "Like-named read-outs stand apart in the source and are kept apart here. Square brackets hold non-standard residues; d marks the D form. Peptide text beside a SMILES is read from it.", "data": [{"smiles": "CC[C@@H](C)[C@@H](NC(=O)[C@@H](CC(C)C)NC(=O)[C@@H](CCCNC(=N)N)NC(=O)[C@H](N)CCCNC(=N)N)C(=O)N[C@H](Cc1c[nH]c2ccccc12)C(=O)N[C@H](CCCNC(=N)N)C(=O)N[C@H](CCCNC(=N)N)C(=O)N[C@H](Cc1ccccc1)C(=O)N[C@H](CCCCN)C(=O)N[C@H](Cc1c[nH]c2ccccc12)C(=O)N[C@H](CC(C)C)C(=O)N[C@H](CCCNC(=N)N)C(=O)O", "note": "[Chain204D] (H-[dR][dR][dL][dI][dW][dR][dR][dF][dK][dW][dL][dR]-OH)", "values": [{"measurement": "Minimum inhibitory concentration", "setting": "[1]; Acinetobacter baumannii clinical strain 1", "value": 4}, {"measurement": "Minimum inhibitory concentration", "setting": "[1]; Acinetobacter baumannii clinical strain 2", "value": 4}, {"measurement": "Minimum inhibitory concentration", "setting": "[1]; Acinetobacter baumannii clinical strain 3", "value": 4}, {"measurement": "Minimum inhibitory concentration", "setting": "[1]; Acinetobacter baumannii clinical strain 4", "value": 4}, {"measurement": "Minimum inhibitory concentration", "setting": "[1]; Acinetobacter baumannii clinical strain 5", "value": 4}, {"measurement": "Minimum inhibitory concentration", "setting": "[2]; Enterobacter cloacae clinical strain 1", "value": 4}, {"measurement": "Minimum inhibitory concentration", "setting": "[2]; Enterobacter cloacae clinical strain 2", "value": 8}, {"measurement": "Minimum inhibitory concentration", "setting": "[2]; Enterobacter cloacae clinical strain 3", "value": 4}, {"measurement": "Minimum inhibitory concentration", "setting": "[2]; Enterobacter cloacae clinical strain 4", "value": 8}, {"measurement": "Minimum inhibitory concentration", "setting": "[2]; Enterobacter cloacae clinical strain 5", "value": 2}, {"measurement": "Minimum inhibitory concentration", "setting": "[3]; Proteus mirabilis clinical strain 1", "value": ">128"}, {"measurement": "Minimum inhibitory concentration", "setting": "[3]; Proteus mirabilis clinical strain 2", "value": 32}, {"measurement": "Minimum inhibitory concentration", "setting": "[3]; Proteus mirabilis clinical strain 3", "value": 64}, {"measurement": "Minimum inhibitory concentration", "setting": "[3]; Proteus mirabilis clinical strain 4", "value": ">128"}, {"measurement": "Minimum inhibitory concentration", "setting": "[3]; Proteus mirabilis clinical strain 5", "value": ">128"}, {"measurement": "Minimum inhibitory concentration", "setting": "[4]; Serratia marcescens clinical strain 1", "value": ">128"}, {"measurement": "Minimum inhibitory concentration", "setting": "[4]; Serratia marcescens clinical strain 2", "value": ">128"}, {"measurement": "Minimum inhibitory concentration", "setting": "[4]; Serratia marcescens clinical strain 3", "value": 128}, {"measurement": "Minimum inhibitory concentration", "setting": "[4]; Serratia marcescens clinical strain 4", "value": ">128"}, {"measurement": "Minimum inhibitory concentration", "setting": "[4]; Serratia marcescens clinical strain 5", "value": ">128"}, {"measurement": "Minimum inhibitory concentration", "setting": "[5]; Staphylococcus aureus clinical strain 1", "value": 1}, {"measurement": "Minimum inhibitory concentration", "setting": "[5]; Staphylococcus aureus clinical strain 2", "value": 2}, {"measurement": "Minimum inhibitory concentration", "setting": "[5]; Staphylococcus aureus clinical strain 3", "value": 2}, {"measurement": "Minimum inhibitory concentration", "setting": "[5]; Staphylococcus aureus clinical strain 4", "value": 1}, {"measurement": "Minimum inhibitory concentration", "setting": "[5]; Staphylococcus aureus clinical strain 5", "value": 1}, {"measurement": "Minimum inhibitory concentration", "setting": "[6]; Streptococcus pneumoniae clinical strain 1", "value": 4}, {"measurement": "Minimum inhibitory concentration", "setting": "[6]; Streptococcus pneumoniae clinical strain 2", "value": 4}, {"measurement": "Minimum inhibitory concentration", "setting": "[6]; Streptococcus pneumoniae clinical strain 3", "value": 4}, {"measurement": "Minimum inhibitory concentration", "setting": "[6]; Streptococcus pneumoniae clinical strain 4", "value": 4}, {"measurement": "Minimum inhibitory concentration", "setting": "[6]; Streptococcus pneumoniae clinical strain 5", "value": 4}, {"measurement": "Minimum inhibitory concentration", "setting": "[7]; Candida albicans clinical yeast strain 1", "value": 8}, {"measurement": "Minimum inhibitory concentration", "setting": "[7]; Candida albicans clinical yeast strain 2", "value": 8}, {"measurement": "Minimum inhibitory concentration", "setting": "[7]; Candida albicans clinical yeast strain 3", "value": 8}, {"measurement": "Minimum inhibitory concentration", "setting": "[7]; Candida albicans clinical yeast strain 4", "value": 8}, {"measurement": "Minimum inhibitory concentration", "setting": "[7]; Candida albicans clinical yeast strain 5", "value": 8}, {"measurement": "Minimum inhibitory concentration", "setting": "[8]; C. glabrata clinical yeast strain 1", "value": 4}, {"measurement": "Minimum inhibitory concentration", "setting": "[8]; C. glabrata clinical yeast strain 2", "value": 8}, {"measurement": "Minimum inhibitory concentration", "setting": "[8]; C. glabrata clinical yeast strain 3", "value": 32}, {"measurement": "Minimum inhibitory concentration", "setting": "[8]; C. glabrata clinical yeast strain 4", "value": 32}, {"measurement": "Minimum inhibitory concentration", "setting": "[9]; C. parapsilosis clinical yeast strain 1", "value": 4}, {"measurement": "Minimum inhibitory concentration", "setting": "[9]; C. parapsilosis clinical yeast strain 2", "value": 4}, {"measurement": "Minimum inhibitory concentration", "setting": "[9]; C. parapsilosis clinical yeast strain 3", "value": 8}, {"measurement": "Minimum inhibitory concentration", "setting": "[9]; C. parapsilosis clinical yeast strain 4", "value": 8}, {"measurement": "Minimum inhibitory concentration", "setting": "[10]", "value": 4}, {"measurement": "Minimum inhibitory concentration", "setting": "[11]; Escherichia coli clinical strain 1", "value": 8}, {"measurement": "Minimum inhibitory concentration", "setting": "[11]; Escherichia coli clinical strain 2", "value": 1}, {"measurement": "Minimum inhibitory concentration", "setting": "[11]; Escherichia coli clinical strain 3", "value": 1}, {"measurement": "Minimum inhibitory concentration", "setting": "[11]; Escherichia coli clinical strain 4", "value": 1}, {"measurement": "Minimum inhibitory concentration", "setting": "[11]; Escherichia coli clinical strain 5", "value": 1}, {"measurement": "Minimum inhibitory concentration", "setting": "[12]; Klebsiella pneumoniae clinical strain 1", "value": 8}, {"measurement": "Minimum inhibitory concentration", "setting": "[12]; Klebsiella pneumoniae clinical strain 2", "value": 4}, {"measurement": "Minimum inhibitory concentration", "setting": "[12]; Klebsiella pneumoniae clinical strain 3", "value": 16}, {"measurement": "Minimum inhibitory concentration", "setting": "[12]; Klebsiella pneumoniae clinical strain 4", "value": 4}, {"measurement": "Minimum inhibitory concentration", "setting": "[12]; Klebsiella pneumoniae clinical strain 5", "value": 2}, {"measurement": "Minimum inhibitory concentration", "setting": "[13]; Pseudomonas aeruginosa clinical strain 1", "value": 4}, {"measurement": "Minimum inhibitory concentration", "setting": "[13]; Pseudomonas aeruginosa clinical strain 2", "value": 16}, {"measurement": "Minimum inhibitory concentration", "setting": "[13]; Pseudomonas aeruginosa clinical strain 3", "value": 8}, {"measurement": "Minimum inhibitory concentration", "setting": "[13]; Pseudomonas aeruginosa clinical strain 4", "value": 8}, {"measurement": "Minimum inhibitory concentration", "setting": "[13]; Pseudomonas aeruginosa clinical strain 5", "value": 4}]}]}
